BigSolDB 2.1

O=c1[nH]c2ccccc2n1CCCN1CCC(n2c(=O)[nH]c3cc(Cl)ccc32)CC1
solubility (mole fraction)
Settings | 293.15 K | 298.15 K | 323.15 K | 328.15 K | 333.15 K
in DMF | – | – | 0.000679 | 0.000791 | 0.000911
in DMSO | – | – | 0.00142 | 0.00171 | 0.00209
in isopropanol | 1.85e-05 | 2.29e-05 | 6.48e-05 | 7.7e-05 | 8.99e-05
in water | – | – | 6.38e-07 | 7.73e-07 | 9.34e-07
